IC50 data for 40 compounds are collected here from BindingDB's records for doi:10.1021/jm960395q (Shionogi, 1996).

The target of one assay is Phospholipase A2 (Homo sapiens, UniProt P04054). The experiment in a line: Inhibition of recombinant human secretory phospholipase A2 (sPLA2), chromogenic screening assay.
Assay [1] in a line: Inhibitory activity against recombinant human secretory phospholipase A2 (s-PLA2) by phosphatidylcholine/deoxycholate assay (PC/DOC).

Sequence of Phospholipase A2 (P04054 whole entry): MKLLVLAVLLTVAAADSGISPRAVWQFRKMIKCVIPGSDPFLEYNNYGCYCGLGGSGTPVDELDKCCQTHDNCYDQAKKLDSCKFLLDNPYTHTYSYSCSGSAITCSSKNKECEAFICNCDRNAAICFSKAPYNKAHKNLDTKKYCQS

Usually IC50 stands for the point on the concentration scale where inhibition reaches its midpoint. In the case of `CCc1c(C(=O)C(N)=O)c2c(OCCC(=O)O)cccn2c1Cc1ccccc1-c1ccccc1` [3-(1-Aminooxalyl-3-biphenyl-2-ylmethyl-2-ethyl-indolizin-8-yloxy)-propionic acid], the IC50 was determined as 44 nM at Phospholipase A2 and 130 nM in assay [1].
On the same counts, the results for `CCc1c(C(=O)C(N)=O)c2c(OCC(=O)O)cccn2c1Cc1ccccc1` [(1-Aminooxalyl-3-benzyl-2-ethyl-indolizin-8-yloxy)-acetic acid] are 8 nM and 5 nM.
On to `CCc1c(C(=O)C(N)=O)c2c(OCC(=O)OC)cccn2c1Cc1ccccc1-c1ccccc1` [(1-Aminooxalyl-3-biphenyl-2-ylmethyl-2-ethyl-indolizin-8-yloxy)-acetic acid methyl ester], for which, at Phospholipase A2, the IC50 was 17 nM.
Turning to `NC(=O)C(=O)c1c(C2CC2)c(Cc2ccccc2-c2ccccc2)n2cccc(OCC(=O)O)c12` [(1-Aminooxalyl-3-biphenyl-2-ylmethyl-2-cyclopropyl-indolizin-8-yloxy)-acetic acid], the IC50 amounted to 9 nM at Phospholipase A2 and 6 nM in assay [1].
On the same counts, the results for `CCCCC[C@H]1CCCC(Cc2c(CC)c(C(=O)C(N)=O)c3c(OCC(=O)O)cccn23)C1` (stereo partly drawn) [[1-Aminooxalyl-2-ethyl-3-((S)-3-pentyl-cyclohexylmethyl)-indolizin-8-yloxy]-acetic acid] are 25 nM and 20 nM.
On the same counts, the results for `Cc1c(C(=O)C(N)=O)c2c(OCC(=O)O)cccn2c1CC1CCCC1` [(1-Aminooxalyl-3-cyclopentylmethyl-2-methyl-indolizin-8-yloxy)-acetic acid] are 14 nM and 22 nM.
On the same counts, the results for `CCCC(C)Cc1c(CC)c(C(=O)C(N)=O)c2c(OCC(=O)O)cccn12` (stereo unspecified) [[1-Aminooxalyl-2-ethyl-3-(2-methyl-pentyl)-indolizin-8-yloxy]-acetic acid] are 17 nM and 78 nM.
On to `CCc1c(C(=O)C(N)=O)c2c(OCC(=O)O)cccn2c1Cc1cc(C(C)(C)C)cc(C(C)(C)C)c1` [[1-Aminooxalyl-3-(3,5-di-tert-butyl-benzyl)-2-ethyl-indolizin-8-yloxy]-acetic acid], for which, on Phospholipase A2, the IC50 came to 6600 nM.
For the compound `CCc1c(C(=O)C(=O)N(C)C)c2c(OCC(=O)O)cccn2c1Cc1ccccc1` [(3-Benzyl-1-dimethylaminooxalyl-2-ethyl-indolizin-8-yloxy)-acetic acid], at Phospholipase A2, the IC50 is over 50000 nM.
The same measure, in the same setting: the result for `CCc1c(C(=O)C(N)=O)c2cc(OCC(=O)O)ccn2c1Cc1ccccc1-c1ccccc1` reads 1400 nM.
For the compound `CCc1c(C(=O)C(N)=O)c2c(OCC(=O)O)cccn2c1Cc1cccc(Cl)c1` [[1-Aminooxalyl-3-(3-chloro-benzyl)-2-ethyl-indolizin-8-yloxy]-acetic acid], the results for the IC50 (on Phospholipase A2; in assay [1]) were 6 nM and 3 nM, respectively.
Take `NC(=O)Cc1c(C2CC2)c(Cc2ccccc2-c2ccccc2)n2cccc(OCC(=O)O)c12` [(3-Biphenyl-2-ylmethyl-1-carbamoylmethyl-2-cyclopropyl-indolizin-8-yloxy)-acetic acid]: the IC50 at Phospholipase A2 amounted to 13 nM; in assay [1], 26 nM.
Take `Cc1c(C(=O)C(N)=O)c2c(OCC(=O)O)cccn2c1CC12C[C@H]3C[C@@H](C1)C[C@@H](C2)C3` [(3-Adamantan-1-ylmethyl-1-aminooxalyl-2-methyl-indolizin-8-yloxy)-acetic acid]: the IC50 on Phospholipase A2 worked out at 120 nM.
On the same count and under the same terms, the result for `CCc1c(C(=O)C(N)=O)c2cc(OCCC(=O)O)ccn2c1Cc1ccccc1-c1ccccc1` reads 240 nM; that for `CCc1c(C(=O)C(N)=O)c2c(OCC(=O)OC)cccn2c1CCc1ccccc1` [(1-Aminooxalyl-2-ethyl-3-phenethyl-indolizin-8-yloxy)-acetic acid methyl ester], 51 nM.
As to `CCCCc1ccc(Cc2c(CC)c(C(=O)C(N)=O)c3c(OCC(=O)O)cccn23)cc1` [[1-Aminooxalyl-3-(4-butyl-benzyl)-2-ethyl-indolizin-8-yloxy]-acetic acid], the figures for the IC50 (at Phospholipase A2; in assay [1]) were 11 nM and 5 nM, respectively.
Turning to `CCc1c(C(=O)C(N)=O)c2c(OCc3ccccn3)cccn2c1Cc1ccccc1-c1ccccc1` [2-[3-Biphenyl-2-ylmethyl-2-ethyl-8-(pyridin-2-ylmethoxy)-indolizin-1-yl]-2-oxo-acetamide], the IC50 at Phospholipase A2 was 46 nM.
Consider `CCc1c(CC(N)=O)c2c(OCC(=O)O)cccn2c1Cc1ccccc1` [(3-Benzyl-1-carbamoylmethyl-2-ethyl-indolizin-8-yloxy)-acetic acid], for which the figures for the IC50 (at Phospholipase A2; in assay [1]) were 13 nM and 28 nM, respectively.
On the same counts, the results for `CCc1c(C(=O)C(N)=O)c2c(OCC(=O)O)cccn2c1Cc1ccccc1[N+](=O)[O-]` [[1-Aminooxalyl-2-ethyl-3-(2-nitro-benzyl)-indolizin-8-yloxy]-acetic acid] are 36 nM and 120 nM.
On the same counts, the results for `CCc1c(C(=O)C(N)=O)c2c(OCC(=O)OC)cccn2c1Cc1cccc(-c2ccccc2)c1` [(1-Aminooxalyl-3-biphenyl-3-ylmethyl-2-ethyl-indolizin-8-yloxy)-acetic acid methyl ester] are 9 nM and 4.2 nM.
On the same counts, the results for `COC(=O)COc1cccn2c(CC3CCCCC3)c(C3CC3)c(C(=O)C(N)=O)c12` [(1-Aminooxalyl-3-cyclohexylmethyl-2-cyclopropyl-indolizin-8-yloxy)-acetic acid methyl ester] are 43 nM and 160 nM.
Turning to `CCc1c(C(=O)C(N)=O)c2c(OCC(=O)O)cccn2c1Cc1cccs1` [(1-Aminooxalyl-2-ethyl-3-thiophen-2-ylmethyl-indolizin-8-yloxy)-acetic acid], the IC50 is 11 nM at Phospholipase A2 and 13 nM in assay [1].
Consider `CCc1c(C(=O)C(N)=O)c2cc(OCCCC(=O)O)ccn2c1Cc1ccccc1-c1ccccc1`, for which the IC50 on Phospholipase A2 worked out at 140 nM.
For `CCc1c(CC(N)=O)c2c(OCCCC(=O)O)cccn2c1Cc1ccccc1-c1ccccc1` [4-(3-Biphenyl-2-ylmethyl-1-carbamoylmethyl-2-ethyl-indolizin-8-yloxy)-butyric acid], the IC50 on Phospholipase A2 was found to be 80 nM.
For the compound `NC(=O)C(=O)c1c(C2CC2)c(Cc2ccccc2)n2cccc(OCC(=O)O)c12` [(1-Aminooxalyl-3-benzyl-2-cyclopropyl-indolizin-8-yloxy)-acetic acid], the IC50 on Phospholipase A2 stood at 46 nM; in assay [1] it was 49 nM.
On the same counts, the results for `COC(=O)COc1cccn2c(Cc3cccc4ccccc34)c(C3CC3)c(C(=O)C(N)=O)c12` [(1-Aminooxalyl-2-cyclopropyl-3-naphthalen-1-ylmethyl-indolizin-8-yloxy)-acetic acid methyl ester] are 23 nM and 200 nM.
With `COC(=O)COc1cccn2c(Cc3ccccc3-c3ccccc3)c(C3CCCC3)c(C(=O)C(N)=O)c12` [(1-Aminooxalyl-3-biphenyl-2-ylmethyl-2-cyclopentyl-indolizin-8-yloxy)-acetic acid methyl ester], the IC50 at Phospholipase A2 worked out at 280 nM.
Still for that read-out and setting: the result for `NC(=O)C(=O)c1c(C2CC2)c(Cc2ccccc2-c2ccccc2)n2cccc(OCCCC(=O)O)c12` [4-(1-Aminooxalyl-3-biphenyl-2-ylmethyl-2-cyclopropyl-indolizin-8-yloxy)-butyric acid] reads 4400 nM; that for `CCc1c(C(=O)C(N)=O)c2c(OCC(=O)O)cccn2c1CCc1ccccc1` [(1-Aminooxalyl-2-ethyl-3-phenethyl-indolizin-8-yloxy)-acetic acid], 51 nM.
For `COC(=O)COc1cccn2c(Cc3ccccc3-c3ccccc3)c(C(C)(C)C)c(C(=O)C(N)=O)c12` [(1-Aminooxalyl-3-biphenyl-2-ylmethyl-2-tert-butyl-indolizin-8-yloxy)-acetic acid methyl ester], the IC50 at Phospholipase A2 was determined as 100 nM.
On the same count and under the same terms, under `CSc1c(C(=O)C(N)=O)c2c(OCC(=O)O)cccn2c1Cc1ccccc1-c1ccccc1` [(1-Aminooxalyl-3-biphenyl-2-ylmethyl-2-methylsulfanyl-indolizin-8-yloxy)-acetic acid] stands 16 nM; under `CCc1c(C(=O)C(N)=O)c2c(OCc3ccncc3)cccn2c1Cc1ccccc1-c1ccccc1` [2-[3-Biphenyl-2-ylmethyl-2-ethyl-8-(pyridin-4-ylmethoxy)-indolizin-1-yl]-2-oxo-acetamide], 83 nM.
On to `CCc1c(C(=O)C(N)=O)c2c(OCCCC(=O)O)cccn2c1CC1CCCCC1` [4-(1-Aminooxalyl-3-cyclohexylmethyl-2-ethyl-indolizin-8-yloxy)-butyric acid], for which the IC50 on Phospholipase A2 was determined as 3400 nM.
Still for that read-out and setting: under `COC(=O)COc1cccn2c(Cc3ccccc3-c3ccccc3)c(C(C)C)c(C(=O)C(N)=O)c12` [(1-Aminooxalyl-3-biphenyl-2-ylmethyl-2-isopropyl-indolizin-8-yloxy)-acetic acid methyl ester] stands 35 nM.
Still for that read-out and setting: under `CCc1c(C(=O)C(=O)NC)c2c(OCC(=O)O)cccn2c1Cc1ccccc1` [(3-Benzyl-2-ethyl-1-methylaminooxalyl-indolizin-8-yloxy)-acetic acid] stands over 50000 nM; under `CCc1c(C(=O)C(N)=O)c2c(OCCCCC(=O)O)cccn2c1Cc1ccccc1-c1ccccc1` [5-(1-Aminooxalyl-3-biphenyl-2-ylmethyl-2-ethyl-indolizin-8-yloxy)-pentanoic acid], 1300 nM; under `CCCCCc1c(CC)c(C(=O)C(N)=O)c2c(OCC(=O)O)cccn12` [(1-Aminooxalyl-2-ethyl-3-pentyl-indolizin-8-yloxy)-acetic acid], 62 nM.
For the compound `CCc1c(CC(N)=O)c2c(OCC(O)CC)cccn2c1Cc1cccc(Cl)c1` (stereo unspecified) [2-[3-(3-Chloro-benzyl)-2-ethyl-8-(2-hydroxy-butoxy)-indolizin-1-yl]-acetamide], the IC50 on Phospholipase A2 is 19000 nM.
The same measure, in the same setting: the result for `CCc1c(Cc2ccccc2)c2ccc(OCCCC(=O)O)cn2c1C(=O)C(N)=O` [4-(3-Aminooxalyl-1-benzyl-2-ethyl-indolizin-6-yloxy)-butyric acid] reads 1100 nM.
Same read-out and setting: the result for `CCc1c(C(=O)C(N)=O)c2c(OCCCC(=O)O)cccn2c1Cc1ccccc1` [4-(1-Aminooxalyl-3-benzyl-2-ethyl-indolizin-8-yloxy)-butyric acid] reads 200 nM.
